# Active and inactive are the calls of the source.
# Tests used:
# [1] = Luminescence Cell-Based Dose Response to Identify Activators of Luciferase Translation or Activity in H4-C Neuroglioblastoma Cells. [Related pubchem assays: 1829 (Project Summary), 1814 (Primary HTS)]; type: functional
# [2] = Luminescence Cell-Based Dose Response HTS to Identify Activators of Luciferase Translation or Activity in H4 […] Cells. [Related pubchem assays: 1829 (Project Summary), 1814 (Primary HTS)]; type: functional
# [3] = Luminescence Cell-Based Dose Response to Identify Activators of 5'UTR Stem-Loop Driven Prion Protein mRNA Translation in H4-C Neuroglioblastoma Cells. [Related pubchem assays: 1829 (Project Summary), 1814 (Primary HTS)]; type: functional
# [4] = Luminescence Cell-Based Dose Confirmation to Identify Activators of 5'UTR Stem-Loop Driven Alpha-Synuclein mRNA Translation in H4 Neuroglioblastoma Cells. [Related pubchem assays: 1829 (Project Summary), 1814 (Primary HTS)]; type: functional
# H4 = test: Luminescence Cell-Based Dose Response HTS to Identify Activators of 5'UTR Stem-Loop Driven Prion Protein mRNA Translation in H4 Neuroglioblastoma Cells. [Related pubchem assays: 1829 (Project Summary), 1814 (Primary HTS)]; type: functional; settings: Homo sapiens
# [5] = Luminescence Cell-Based Dose Confirmation HTS to Identify Activators of 5'UTR Stem-Loop Driven Alpha-Synuclein mRNA Translation in H4 Neuroglioblastoma Cells. [Related pubchem assays: 1829 (Project Summary), 1814 (Primary HTS)]; type: functional
# Protein Tat = molecular target: T1, Protein Tat (Human immunodeficiency virus type 1 group M subtype B (isolate HXB2)(HIV-1), UniProt P04608); type: functional;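 also: tat binding to TAR RNA read out by fluorescence polarization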
# T1 sequence (P04608 whole entry): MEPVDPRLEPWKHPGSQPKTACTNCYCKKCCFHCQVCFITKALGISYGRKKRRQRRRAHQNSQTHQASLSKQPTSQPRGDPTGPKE
# Cytochrome P450 3A4 [6] = molecular target: T2, Cytochrome P450 3A4 (Homo sapiens, UniProt P08684); settings: Potency
# T2 sequence (P08684 whole entry): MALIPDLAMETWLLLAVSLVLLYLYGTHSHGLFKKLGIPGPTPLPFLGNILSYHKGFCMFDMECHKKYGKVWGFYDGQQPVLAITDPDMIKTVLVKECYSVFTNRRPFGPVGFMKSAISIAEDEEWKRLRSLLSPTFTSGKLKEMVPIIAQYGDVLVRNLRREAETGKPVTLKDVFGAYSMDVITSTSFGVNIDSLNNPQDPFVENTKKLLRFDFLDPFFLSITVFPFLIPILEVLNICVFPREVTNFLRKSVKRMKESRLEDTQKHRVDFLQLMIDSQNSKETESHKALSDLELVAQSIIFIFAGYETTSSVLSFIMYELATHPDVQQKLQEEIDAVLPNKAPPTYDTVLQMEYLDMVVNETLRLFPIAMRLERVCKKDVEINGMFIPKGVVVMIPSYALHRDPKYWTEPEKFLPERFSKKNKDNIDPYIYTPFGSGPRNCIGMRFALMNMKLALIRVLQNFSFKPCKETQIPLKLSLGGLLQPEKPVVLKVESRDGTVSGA
# [7] = molecular target: Peroxisome proliferator-activated receptor gamma/Nuclear receptor coactivator 1 (Homo sapiens, UniProt P37231); type: functional;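 also: agonist potency as compounds enhance coactivator SRC-1 recruitment to PPARgamma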
# Chain of Peroxisome proliferator-activated receptor gamma/Nuclear receptor coactivator 1 (P37231 whole entry): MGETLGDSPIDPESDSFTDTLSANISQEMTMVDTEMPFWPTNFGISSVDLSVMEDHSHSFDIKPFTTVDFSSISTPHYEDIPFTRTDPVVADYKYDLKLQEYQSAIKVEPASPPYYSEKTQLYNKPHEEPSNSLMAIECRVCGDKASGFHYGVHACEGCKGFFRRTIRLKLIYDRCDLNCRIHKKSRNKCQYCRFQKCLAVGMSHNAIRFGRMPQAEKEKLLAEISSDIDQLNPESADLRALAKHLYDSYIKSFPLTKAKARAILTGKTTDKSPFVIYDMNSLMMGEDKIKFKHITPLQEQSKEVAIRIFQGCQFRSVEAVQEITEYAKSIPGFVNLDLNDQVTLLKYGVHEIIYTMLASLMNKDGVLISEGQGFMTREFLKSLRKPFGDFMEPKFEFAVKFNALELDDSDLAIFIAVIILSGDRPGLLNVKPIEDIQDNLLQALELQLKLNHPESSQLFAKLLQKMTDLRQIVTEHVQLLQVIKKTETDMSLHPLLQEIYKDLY
# Chain of Peroxisome proliferator-activated receptor gamma/Nuclear receptor coactivator 1 (Q15788 whole entry, further chain): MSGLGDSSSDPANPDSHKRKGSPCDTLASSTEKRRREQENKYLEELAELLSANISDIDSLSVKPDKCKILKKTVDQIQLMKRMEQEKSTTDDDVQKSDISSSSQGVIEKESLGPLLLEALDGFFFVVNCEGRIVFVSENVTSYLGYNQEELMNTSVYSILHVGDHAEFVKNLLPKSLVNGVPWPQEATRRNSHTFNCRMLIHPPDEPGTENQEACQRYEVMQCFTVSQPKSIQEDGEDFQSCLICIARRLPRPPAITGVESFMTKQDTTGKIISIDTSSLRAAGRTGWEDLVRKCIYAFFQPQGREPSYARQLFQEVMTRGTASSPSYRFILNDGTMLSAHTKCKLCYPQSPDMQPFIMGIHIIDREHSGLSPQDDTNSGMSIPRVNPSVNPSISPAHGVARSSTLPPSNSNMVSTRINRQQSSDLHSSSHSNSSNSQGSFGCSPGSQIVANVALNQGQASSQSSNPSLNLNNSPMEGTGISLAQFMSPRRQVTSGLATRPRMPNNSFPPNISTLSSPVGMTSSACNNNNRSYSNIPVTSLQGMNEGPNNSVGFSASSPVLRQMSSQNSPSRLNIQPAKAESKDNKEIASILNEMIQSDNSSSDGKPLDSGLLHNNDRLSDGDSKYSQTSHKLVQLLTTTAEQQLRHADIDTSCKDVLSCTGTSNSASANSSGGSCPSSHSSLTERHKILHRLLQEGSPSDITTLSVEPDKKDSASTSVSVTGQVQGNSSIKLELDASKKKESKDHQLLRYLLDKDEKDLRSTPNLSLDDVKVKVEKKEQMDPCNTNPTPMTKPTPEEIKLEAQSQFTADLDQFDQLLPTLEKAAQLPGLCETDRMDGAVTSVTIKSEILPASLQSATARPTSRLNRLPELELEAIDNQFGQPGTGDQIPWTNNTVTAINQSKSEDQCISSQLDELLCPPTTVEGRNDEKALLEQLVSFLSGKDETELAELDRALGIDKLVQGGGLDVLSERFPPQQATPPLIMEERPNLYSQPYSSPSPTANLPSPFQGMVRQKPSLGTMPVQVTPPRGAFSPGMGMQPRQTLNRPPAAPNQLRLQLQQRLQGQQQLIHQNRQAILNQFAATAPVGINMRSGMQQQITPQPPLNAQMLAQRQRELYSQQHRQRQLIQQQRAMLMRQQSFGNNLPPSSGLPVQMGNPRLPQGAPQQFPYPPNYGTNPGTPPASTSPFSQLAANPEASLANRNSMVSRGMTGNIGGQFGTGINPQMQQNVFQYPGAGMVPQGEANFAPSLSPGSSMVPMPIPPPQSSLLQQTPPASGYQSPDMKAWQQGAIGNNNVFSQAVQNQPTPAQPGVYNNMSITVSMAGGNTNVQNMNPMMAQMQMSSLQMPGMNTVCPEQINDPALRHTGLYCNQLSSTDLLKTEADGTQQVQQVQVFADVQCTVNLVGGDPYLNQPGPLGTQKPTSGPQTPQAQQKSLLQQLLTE
# [8] = molecular target: Peroxisome proliferator-activated receptor gamma/Nuclear receptor coactivator 3 (Homo sapiens, UniProt P37231); type: functional;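 also: agonist potency for raising coactivator recruitment to the receptor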
# Chain of Peroxisome proliferator-activated receptor gamma/Nuclear receptor coactivator 3 (P37231 whole entry): as the sequence (P37231 whole entry) above
# Chain of Peroxisome proliferator-activated receptor gamma/Nuclear receptor coactivator 3 (Q9Y6Q9 whole entry, further chain): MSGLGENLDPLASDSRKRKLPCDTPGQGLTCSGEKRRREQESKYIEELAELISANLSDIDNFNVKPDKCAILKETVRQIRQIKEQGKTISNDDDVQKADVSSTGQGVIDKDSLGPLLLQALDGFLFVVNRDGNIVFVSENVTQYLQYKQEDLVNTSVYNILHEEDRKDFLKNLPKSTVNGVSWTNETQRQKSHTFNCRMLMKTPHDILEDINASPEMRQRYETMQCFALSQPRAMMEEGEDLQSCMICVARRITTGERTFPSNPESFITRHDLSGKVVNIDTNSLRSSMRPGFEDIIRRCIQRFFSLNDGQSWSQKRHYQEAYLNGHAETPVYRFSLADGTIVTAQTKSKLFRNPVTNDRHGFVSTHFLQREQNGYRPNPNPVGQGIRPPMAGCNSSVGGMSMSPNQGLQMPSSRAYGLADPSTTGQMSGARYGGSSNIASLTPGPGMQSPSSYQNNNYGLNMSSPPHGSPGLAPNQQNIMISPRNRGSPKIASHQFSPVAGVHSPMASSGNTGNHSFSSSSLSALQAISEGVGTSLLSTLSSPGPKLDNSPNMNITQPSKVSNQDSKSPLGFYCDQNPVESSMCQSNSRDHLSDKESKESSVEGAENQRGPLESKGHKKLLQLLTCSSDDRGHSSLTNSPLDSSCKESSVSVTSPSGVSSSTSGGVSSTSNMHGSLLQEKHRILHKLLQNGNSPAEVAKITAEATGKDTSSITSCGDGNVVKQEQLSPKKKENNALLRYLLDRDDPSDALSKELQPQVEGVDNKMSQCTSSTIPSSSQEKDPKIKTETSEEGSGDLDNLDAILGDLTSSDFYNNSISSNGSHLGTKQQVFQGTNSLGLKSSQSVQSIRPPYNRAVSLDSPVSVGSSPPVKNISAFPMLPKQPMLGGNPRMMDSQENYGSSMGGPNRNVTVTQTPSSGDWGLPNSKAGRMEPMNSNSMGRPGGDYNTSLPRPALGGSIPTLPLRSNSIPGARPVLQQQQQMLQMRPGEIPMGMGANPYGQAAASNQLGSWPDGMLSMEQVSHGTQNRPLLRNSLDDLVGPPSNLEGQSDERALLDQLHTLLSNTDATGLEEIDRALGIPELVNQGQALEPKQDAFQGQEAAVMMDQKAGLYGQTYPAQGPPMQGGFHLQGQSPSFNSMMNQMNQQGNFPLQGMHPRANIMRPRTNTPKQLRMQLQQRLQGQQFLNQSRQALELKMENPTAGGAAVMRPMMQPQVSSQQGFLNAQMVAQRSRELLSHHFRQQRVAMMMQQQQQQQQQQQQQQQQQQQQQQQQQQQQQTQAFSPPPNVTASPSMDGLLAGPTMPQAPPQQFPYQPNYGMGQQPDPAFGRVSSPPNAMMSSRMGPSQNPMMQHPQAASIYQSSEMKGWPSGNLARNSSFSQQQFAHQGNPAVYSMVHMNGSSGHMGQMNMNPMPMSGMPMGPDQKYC
# [9] = molecular target: Peroxisome proliferator-activated receptor gamma/Nuclear receptor coactivator 2 (Homo sapiens, UniProt P37231); type: functional;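 also: agonist potency for raising coactivator recruitment to the receptor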
# Protein skinhead-1 = molecular target: T3, Protein skinhead-1 (Caenorhabditis elegans, UniProt P34707); type: functional
# T3 sequence (P34707 whole entry): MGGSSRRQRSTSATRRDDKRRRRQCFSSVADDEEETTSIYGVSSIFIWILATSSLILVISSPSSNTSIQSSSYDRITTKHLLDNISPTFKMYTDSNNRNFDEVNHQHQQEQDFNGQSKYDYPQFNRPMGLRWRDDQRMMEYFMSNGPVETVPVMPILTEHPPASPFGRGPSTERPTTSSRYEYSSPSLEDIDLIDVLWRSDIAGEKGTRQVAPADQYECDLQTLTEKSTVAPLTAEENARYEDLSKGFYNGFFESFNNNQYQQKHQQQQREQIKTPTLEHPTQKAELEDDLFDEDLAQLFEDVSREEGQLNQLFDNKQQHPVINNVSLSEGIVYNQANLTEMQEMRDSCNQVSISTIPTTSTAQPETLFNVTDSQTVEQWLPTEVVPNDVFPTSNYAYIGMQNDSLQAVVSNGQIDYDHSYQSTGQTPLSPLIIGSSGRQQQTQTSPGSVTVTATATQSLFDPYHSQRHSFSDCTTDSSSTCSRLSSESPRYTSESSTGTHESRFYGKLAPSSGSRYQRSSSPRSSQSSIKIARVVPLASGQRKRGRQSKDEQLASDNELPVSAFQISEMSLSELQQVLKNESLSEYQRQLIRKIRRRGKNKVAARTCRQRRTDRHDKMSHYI
# [10] = Luminescence Cell-Based Dose Confirmation HTS to Identify Inhibitors of Platelet Dense Granule Release. [Related pubchem assays: 1663 (Primary HTS), 1678 (Summary of Project)]; type: functional
# BJ [11] = test: cytotoxicity toward BJ-TERT fibroblasts, dose response, cell-based, RAS-independent, luminescence (AID 1933); type: functional; settings: Homo sapiens
# BJ [12] = test: cells; type: functional, cell-based; settings: Homo sapiens
# BJ [13] = test: cytotoxicity toward BJ-TERT-LT-ST fibroblasts, dose response, cell-based, RAS-independent, luminescence (AID 1935); type: functional; settings: Homo sapiens;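 also: BJ fibroblasts immortalized with TERT plus LT and ST oncogenes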
# [14] = molecular target: Luciferin 4-monooxygenase (Photinus pyralis, UniProt P08659); test: firefly luciferase enzyme inhibitors, dose response, biochemical, luminescence (AID 1891)
# [15] = LGR2 antagonists, dose response, cell-based, HEK293, CRE-luciferase reporter, cherry pick, set 2 (AID 743343); type: functional;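 also: transfected cells were stimulated with diluted bursicon conditioned medium after compound addition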
# [16] = MC4R antagonists, dose response, counter-screen for LGR2 antagonist project, cell-based, plate reader, cherry pick (AID 743444); type: functional;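 also: transfected HEK 293 cells stimulated with alpha-MSH peptide; potency of inhibitors of the alpha-MSH evoked signal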
# [17] = A549 cell cytotoxicity, dose response, cytotoxicity control, plate reader, cherry-pick, antagonist series (AID 743412); type: functional, cell-based
# [18] = HepG2 cell cytotoxicity, dose response, cytotoxicity control, plate reader, cherry-pick, antagonist series (AID 743416); type: functional, cell-based
# [19] = HEK293 cell cytotoxicity, dose response, cytotoxicity control, plate reader, cherry-picked samples (AID 743446); type: functional, cell-based
# [20] = cytotoxicity toward DRD oncogenic fibroblasts, dose response, cell-based, non-viral oncogenic, luminescence (AID 1934); type: functional; settings: Homo sapiens
# Leucine aminopeptidase = molecular target: T4, Leucine aminopeptidase (Plasmodium falciparum 3D7, UniProt Q8IL11); test: P. falciparum M17LAP inhibitors, primary screen, biochemical, fluorogenic H-Leu-NHMec substrate, 1536-well (AID 1619); type: functional
# T4 sequence (Q8IL11 whole entry): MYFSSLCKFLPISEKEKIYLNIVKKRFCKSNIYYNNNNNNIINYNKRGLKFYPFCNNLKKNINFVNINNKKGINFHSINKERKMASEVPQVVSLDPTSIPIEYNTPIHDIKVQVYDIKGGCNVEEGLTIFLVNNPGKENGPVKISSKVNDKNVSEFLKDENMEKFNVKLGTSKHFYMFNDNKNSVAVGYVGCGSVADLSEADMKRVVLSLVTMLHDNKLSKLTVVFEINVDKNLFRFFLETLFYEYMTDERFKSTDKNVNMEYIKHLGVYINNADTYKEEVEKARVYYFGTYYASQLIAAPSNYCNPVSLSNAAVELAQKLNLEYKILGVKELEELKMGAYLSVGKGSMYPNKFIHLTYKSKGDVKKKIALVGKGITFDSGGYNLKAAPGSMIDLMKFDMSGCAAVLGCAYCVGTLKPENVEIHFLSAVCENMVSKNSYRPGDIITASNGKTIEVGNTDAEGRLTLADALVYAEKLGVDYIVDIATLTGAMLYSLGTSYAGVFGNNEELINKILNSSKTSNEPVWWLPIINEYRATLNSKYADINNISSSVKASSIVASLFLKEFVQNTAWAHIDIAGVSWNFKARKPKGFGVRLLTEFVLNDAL
# [21] = molecular target: G-protein coupled receptor 55 (Homo sapiens, UniProt Q9Y2T6); test: GPR55 agonists via beta-arrestin recruitment, primary screen, imaging, U2OS cells, beta-arrestin-GFP redistribution (AID 1961); type: functional
# Chain of G-protein coupled receptor 55 (Q9Y2T6 whole entry): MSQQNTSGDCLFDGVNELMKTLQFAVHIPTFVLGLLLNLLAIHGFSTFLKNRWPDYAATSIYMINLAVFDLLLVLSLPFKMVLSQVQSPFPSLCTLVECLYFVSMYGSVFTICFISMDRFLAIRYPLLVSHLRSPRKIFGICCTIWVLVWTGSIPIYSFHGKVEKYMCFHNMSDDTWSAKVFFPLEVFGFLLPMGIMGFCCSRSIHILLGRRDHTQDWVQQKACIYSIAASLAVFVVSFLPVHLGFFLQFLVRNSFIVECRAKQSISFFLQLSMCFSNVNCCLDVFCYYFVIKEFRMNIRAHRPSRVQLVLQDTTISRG
# Cytochrome P450 3A4 [22] = molecular target: T2, Cytochrome P450 3A4
# Cytochrome P450 2D6 = Cytochrome P450 2D6 (Homo sapiens, UniProt P10635);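 also: CYP2D6 member of a cytochrome P450 panel assay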
# [23] = HepG2 cell cytotoxicity, dose response, cytotoxicity control for Shn3 inhibitor project, CellTiter-Glo, cherry-picked (AID 624134); type: functional, cell-based
# [24] = control 3'UTR Renilla luciferase suppression, dose response, counter-screen for Shn3 inhibitor project, cell-based, Clone20-Shn3RL, cherry-picked (AID 624133); type: functional
# [25] = Shn3 3'UTR reporter inhibitors, dose response, cell-based, Clone20 osteoblasts, firefly luciferase, cherry-picked (AID 624132); type: functional;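 also: firefly luciferase luminescence from reporter carrying the Shn3 3'UTR in osteoblasts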
# [26] = molecular target: T5, Bifunctional protein GlmU (Mycobacterium tuberculosis, UniProt P9WMN3); test: Inhibitors of Mycobacterial Glucosamine-1-phosphate acetyl transferase (GlmU). Secondary screen.; set-up: species or system Mycobacterium tuberculosis H37Rv
# T5 sequence (P9WMN3 whole entry): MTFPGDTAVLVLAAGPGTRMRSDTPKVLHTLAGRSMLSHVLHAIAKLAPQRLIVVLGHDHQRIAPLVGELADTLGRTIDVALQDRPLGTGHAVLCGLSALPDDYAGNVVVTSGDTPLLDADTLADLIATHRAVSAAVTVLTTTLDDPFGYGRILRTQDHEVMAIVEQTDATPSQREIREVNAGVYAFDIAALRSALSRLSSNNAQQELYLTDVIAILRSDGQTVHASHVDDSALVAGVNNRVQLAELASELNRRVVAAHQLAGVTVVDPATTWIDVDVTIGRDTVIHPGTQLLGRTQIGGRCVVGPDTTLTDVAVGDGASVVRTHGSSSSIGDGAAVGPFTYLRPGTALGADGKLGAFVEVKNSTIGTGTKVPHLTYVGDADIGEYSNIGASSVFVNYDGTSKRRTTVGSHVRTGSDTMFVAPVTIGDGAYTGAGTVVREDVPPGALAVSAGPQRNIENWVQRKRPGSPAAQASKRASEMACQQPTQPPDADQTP
# [27] = Dose-response inhibition of insulin secretion in a rat insulinoma line at 5 mM glucose (AID 1117331); type: functional, cell-based; settings: INS-1E
# [28] = Glucagon-like peptide 1 release potency, NCI-H716 cell line, dose-response, half-maximal inhibitory concentration (AID 1117344); type: functional, cell-based
# [29] = half-maximal inhibitory concentration for glucagon-like peptide-1 release, STC-1 cell line, dose-response (AID 1117345); type: functional, cell-based
# Cytochrome P450 2C9 = Cytochrome P450 2C9 (Homo sapiens, UniProt P11712)
structure (smiles),measurement,setting,value
O=C(CSc1nnnn1C1CCCC1)N1CCCCC1,EC50,[1],0.57 µM (active)
same,EC50,[2],< 0.1 µM (active)
same,EC50,[3],0.537 µM (active)
same,EC50,[4],0.524 µM (active)
same,EC50,H4,> 120 µM (not active)
same,EC50,[5],0.118 µM (active)
COc1ccc2cc(C3C(C#N)=C(N)OC(C)=C3C(C)=O)c(Cl)nc2c1 (configuration not stated),IC50,Protein Tat,> 100 µM (active)
COc1ccc(-c2nc3c(c4c2CC(C)OC4)CN(CCC(C)C)CC3)cc1 (configuration not stated),AC50,Cytochrome P450 3A4 [6],3.16 µM (inconclusive)
O=C(NC1CCCCCCC1)NC1CCCCC1,EC50,[1],1.12 µM (active)
same,EC50,[2],5.81 µM (active)
same,EC50,[3],1.84 µM (active)
same,EC50,[4],> 12 µM (not active)
same,EC50,H4,> 120 µM (not active)
CC1(C)Cc2c(C#N)c(SCC(=O)c3ccccc3)nc(N3CCOCC3)c2CO1,EC50,[7],> 79.4 µM (not active)
same,EC50,[8],> 79.4 µM (not active)
same,EC50,[9],79.4 µM (not active)
CC(=O)c1cnc2cc(-c3ccc(C)cc3)nn2c1C,EC50,[1],0.319 µM (active)
same,EC50,[2],< 0.1 µM (active)
same,EC50,[3],0.223 µM (active)
same,EC50,[4],0.297 µM (active)
CCCSc1ccc2nc(-c3ccccc3)cn2c1,IC50,Protein skinhead-1,> 100 µM (inactive)
same,EC50,[10],2.14 µM (active)
same,EC50,BJ [11],22.8 µM (active)
same,EC50,BJ [12],19.6 µM (active)
same,EC50,BJ [13],> 150 µM (not active)
same,EC50,[14],0.709 µM (active)
same,AC50,[15],0.951 µM (active)
same,AC50,[16],1.2 µM (active)
same,AC50,[17],39.3 µM (active)
same,AC50,[18],20.7 µM (active)
same,AC50,[19],39.5 µM (active)
same,EC50,[20],20.9 µM (active)
O=C(CN1C(=O)c2ccccc2S1(=O)=O)NCCSc1ccccc1,IC50,Leucine aminopeptidase,5.54 µM (active)
FC(F)(F)c1ccc(CN2C[C@@H]3C(c4ccc(C(F)(F)F)cc4)C4(c5ccccc5)CC3(C4)[C@H]2c2ccccc2)cc1 (some centres not stated),AC50,Cytochrome P450 3A4 [6],0.316 µM (inconclusive)
CC(=O)c1cccc(NC(=O)c2cc3ccccn3n2)c1,EC50,[7],> 79.4 µM (not active)
same,EC50,[8],> 79.4 µM (not active)
same,EC50,[9],> 79.4 µM (not active)
CCOC(=O)C(=Cc1ccc(-c2ccsc2C(=O)OC)o1)C(=O)OCC,EC50,[21],18.4 µM (inactive)
same,AC50,Cytochrome P450 3A4 [22],39.8 µM (inconclusive)
same,AC50,Cytochrome P450 2D6,39.8 µM (inconclusive)
C=C(C)C(O)/C=C/CCCCCCC (configuration not stated),AC50,Cytochrome P450 3A4 [6],3.98 µM (inconclusive)
CCN1CCN(C(=O)CN(C)S(=O)(=O)c2ccc(OC)c(C)c2)CC1,IC50,Protein Tat,> 100 µM (active)
CCCCNc1c(-c2cccc(-c3ccc(OC)cc3)c2)nc2cc(C)ccn12,AC50,[23],38.9 µM (active)
same,AC50,[24],10.6 µM (active)
same,AC50,[15],8.28 µM (active)
same,AC50,[16],10.9 µM (active)
same,AC50,[17],17.7 µM (active)
same,AC50,[18],21.9 µM (active)
same,AC50,[19],14.5 µM (active)
same,AC50,[25],12.1 µM (active)
N#C/C(=C\c1ccc(-c2ccc(C(=O)O)cc2)o1)c1nc2ccccc2[nH]1,IC50,[26],51.3 µM (active)
Fc1cc(Br)ccc1CBr,IC50,[27],> 33.3 µM (inactive)
same,IC50,[28],> 40 µM (inactive)
same,IC50,[29],> 40 µM (inactive)
CC1CCN(Cc2c(C(=O)N/N=C/c3ccc(OC(C)C)cc3)nnn2-c2nonc2N)CC1,EC50,[21],3.41 µM (active)
CC(/C=N/NC(=O)c1nnn(-c2nonc2N)c1CN1CCCCC1)=C\c1ccccc1,EC50,[21],< 0.5 µM (active)
COc1ccc(C)cc1N,AC50,Cytochrome P450 3A4 [6],31.6 µM (inconclusive)
COc1ccc2c(c1)C(=O)N(CCc1ccc(S(=O)(=O)NC(=O)NC3CCCCC3)cc1)C(=O)C2(C)C [GLIQUIDONE],IC50,[27],0.23 µM (active)
same,AC50,Cytochrome P450 2C9,12.6 µM (inconclusive)
FC(F)(F)C(F)(F)C(F)(F)C(F)(F)C(F)(F)C(F)(F)C(F)(F)C(F)(F)Br [PERFLUBRON],IC50,[27],> 33.3 µM (inactive)
same,IC50,[28],> 40 µM (inactive)
same,IC50,[29],> 40 µM (inactive)

# Source: ChEMBL document CHEMBL1201862, “PubChem BioAssay data set” (2004)
